We go through 18 compounds from patent US20250221988A1 (Cullgen (Shanghai), Inc., priority 2022, published 2025).

The structures appear in SMILES notation. Like-named read-outs stand apart in the source and are kept apart here.

The test system of one test is MOLM-13 cells. Nature of the test: Cell viability assay (CellTiter-Glo) in MOLM-13 cells. Type of test: cell-based. As to conditions: MOLM-13 cells; for IC50: three days; for sensitization of AML cells to GSPT1 degraders by FLT3 inhibition: with or without 20 nM gilteritinib, 3 days. In general terms: ATP-based viability assays read luminescence as a measure of living cells.

Another test concerns MV4;11 cells. As to the kind of experiment: Cell viability assay (CellTiter-Glo) in MV4;11 cells. As to conditions: MV4;11 cells, three days, read-out: MV4. In kind it is cell-based. An outline of the steps:
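After three days' exposure to 3-fold serial compound dilutions (8 or 12 points), viability of cells seeded at 5000/well is read by CellTiter-Glo. Runs were done alone or combined with gilteritinib at 10 nM (MV4;11) or 20 nM (MOLM-13); IC50 from nonlinear regression.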

The mark [1] stands for this setting: Homo sapiens, 72 h, compound alone, read-out: MOLM-13 IC50.
Setting [2] is: Homo sapiens, MV4-11, 72 h, compound alone, 11 IC50.
[3] abbreviates: with gilteritinib, read-out: MOLM-13 IC50 (nM) + 10 nM Gil.
[4] abbreviates: with 10 nM gilteritinib, 11 IC50 (nM) + 10 nM Gil.

As to `O=C1CCC(N2C(=O)c3ccc(NC[C@H]4C[C@H](n5cc(-c6ncccc6C6CNC6)c(C6CC6)n5)C4)cc3C2=O)C(=O)N1` (stereo partly drawn) [GS-745, 5-(((Trans-3-(4-(3-(azetidin-3-yl)pyridin-2-yl)-3-cyclopropyl-1H-pyrazol-1-yl)cyclobutyl)methyl)amino)-2-(2,6-dioxopiperidin-3-yl)isoindoline-1,3-dione], the IC50 in the test on MOLM-13 cells (setting [1]) and in the test on MV4;11 cells (setting [2]) was above 1000 nM each time.

As for `O=C1CCC(N2C(=O)c3ccc(NCC4CC(n5cc(-c6cnc7cc(C8CNC8)ccc7n6)c(C6CC6)n5)C4)cc3C2=O)C(=O)N1` (stereo not shown) [GS-746], the IC50 in the test on MOLM-13 cells (setting [1]) is above 1000 nM; with MOLM-13 cells (setting [3]), 10 to 100 nM; in the test on MV4;11 cells (setting [2]), 100 to 1000 nM; with MV4;11 cells (setting [4]), 10 to 100 nM.

Consider `Cc1nc(-c2cn([C@H]3C[C@H](CNc4ccc5c(c4)C(=O)N(C4CCC(=O)NC4=O)C5=O)C3)nc2C2CC2)cc2c1cnn2C` (stereo partly drawn) [GS-747, 5-(((Trans-3-(3-cyclopropyl-4-(1,4-dimethyl-1H-pyrazolo[4,3-c]pyridin-6-yl)-1H-pyrazol-1-yl)cyclobutyl)methyl)amino)-2-(2,6-dioxopiperidin-3-yl)isoindoline-1,3-dione], for which the IC50 is 10 to 100 nM in the test with MOLM-13 cells (setting [1]), below 10 nM with MOLM-13 cells (setting [3]), 10 to 100 nM with MV4;11 cells (setting [2]) and below 10 nM in the test on MV4;11 cells (setting [4]).

With `Cc1cccc(-c2cn(C3CC4(CC(CCNc5ccc6c(c5)C(=O)N(C5CCC(=O)NC5=O)C6=O)C4)C3)nc2C2CC2)n1` (stereo not shown) [GS-749, 5-((2-(6-(3-Cyclopropyl-4-(6-methylpyridin-2-yl)-1H-pyrazol-1-yl)spiro[3.3]heptan-2-yl)ethyl)amino)-2-(2,6-dioxopiperidin-3-yl)isoindoline-1,3-dione], the IC50 in the test on MOLM-13 cells (setting [1]) is 10 to 100 nM; with MOLM-13 cells (setting [3]), below 10 nM; with MV4;11 cells (setting [2]), 10 to 100 nM; in the test on MV4;11 cells (setting [4]) it was below 10 nM. Also, the “sensitization of AML cells to GSPT1 degraders by FLT3 inhibition” value in the test on MOLM-13 cells was “FLT3 inhibition sensitizes AML cells”.

In the case of `O=C1CCC(N2C(=O)c3ccc(NC[C@H]4C[C@H](n5cc(-c6cc7nn(C8CC(O)C8)cc7cn6)c(C6CC6)n5)C4)cc3C2=O)C(=O)N1` (stereo partly drawn) [GS-750, 5-(((Trans-3-(3-cyclopropyl-4-(2-(3-hydroxycyclobutyl)-2H-pyrazolo[4,3-c]pyridin-6-yl)-1H-pyrazol-1-yl)cyclobutyl)methyl)amino)-2-(2,6-dioxopiperidin-3-yl)isoindoline-1,3-dione], the IC50 in the test on MOLM-13 cells (setting [1]), with MOLM-13 cells (setting [3]), with MV4;11 cells (setting [2]) and in the test on MV4;11 cells (setting [4]) was below 10 nM throughout. In addition, the “sensitization of AML cells to GSPT1 degraders by FLT3 inhibition” value in the test on MOLM-13 cells was “FLT3 inhibition sensitizes AML cells”.

As for `O=C1CCC(N2C(=O)c3ccc(NC[C@H]4C[C@H](n5cc(-n6ccc7cccnc76)c(C6CC6)n5)C4)cc3C2=O)C(=O)N1` (stereo partly drawn) [GS-751, 5-(((Trans-3-(3-cyclopropyl-4-(1H-pyrrolo[2,3-b]pyridin-1-yl)-1H-pyrazol-1-yl)cyclobutyl)methyl)amino)-2-(2,6-dioxopiperidin-3-yl)isoindoline-1,3-dione], the IC50 with MOLM-13 cells (setting [1]) is 10 to 100 nM; in the test with MOLM-13 cells (setting [3]), below 10 nM; in the test with MV4;11 cells (setting [2]), below 10 nM; in the test with MV4;11 cells (setting [4]) it was below 10 nM.

For `O=C1CCC(N2C(=O)c3ccc(NC[C@H]4C[C@H](n5cc(-c6ncc(F)cc6OC6CC6)c(C6CC6)n5)C4)cc3C2=O)C(=O)N1` (stereo partly drawn) [GS-752, 5-(((Trans-3-(4-(3-cyclopropoxy-5-fluoropyridin-2-yl)-3-cyclopropyl-1H-pyrazol-1-yl)cyclobutyl)methyl)amino)-2-(2,6-dioxopiperidin-3-yl)isoindoline-1,3-dione], the IC50 in the test on MOLM-13 cells (setting [1]), in the test on MOLM-13 cells (setting [3]), with MV4;11 cells (setting [2]) and in the test on MV4;11 cells (setting [4]) was below 10 nM each time.

`Cc1nc(-c2cn([C@H]3C[C@H](CCc4ccc5c(c4)CN(C4CCC(=O)NC4=O)C5=O)C3)nc2C2CC2)ccc1F` (stereo partly drawn) [GS-753, 3-(5-(2-(Trans-3-(3-cyclopropyl-4-(5-fluoro-6-methylpyridin-2-yl)-1H-pyrazol-1-yl)cyclobutyl)ethyl)-1-oxoisoindolin-2-yl)piperidine-2,6-dione]: the IC50 was 100 to 1000 nM in the test on MOLM-13 cells (setting [1]), 10 to 100 nM in the test with MOLM-13 cells (setting [3]), 10 to 100 nM in the test with MV4;11 cells (setting [2]) and below 10 nM in the test on MV4;11 cells (setting [4]).

As for `Cc1nc(-c2cn([C@H]3C[C@H](C#Cc4ccc5c(c4)CN(C4CCC(=O)NC4=O)C5=O)C3)nc2C2CC2)ccc1F` (stereo partly drawn) [GS-754, 3-(5-((Trans-3-(3-cyclopropyl-4-(5-fluoro-6-methylpyridin-2-yl)-1H-pyrazol-1-yl)cyclobutyl)ethynyl)-1-oxoisoindolin-2-yl)piperidine-2,6-dione], the IC50 is above 1000 nM in the test on MOLM-13 cells (setting [1]), 100 to 1000 nM in the test with MOLM-13 cells (setting [3]), above 1000 nM in the test with MV4;11 cells (setting [2]) and 100 to 1000 nM in the test with MV4;11 cells (setting [4]).

Turning to `CN1CC(c2ccc3nc(-c4cn([C@H]5C[C@H](CNc6ccc7c(c6)C(=O)N(C6CCC(=O)NC6=O)C7=O)C5)nc4C4CC4)cnc3c2)C1` (stereo partly drawn) [GS-755, 5-(((Trans-3-(3-cyclopropyl-4-(6-(1-methylazetidin-3-yl)quinoxalin-2-yl)-1H-pyrazol-1-yl)cyclobutyl)methyl)amino)-2-(2,6-dioxopiperidin-3-yl)isoindoline-1,3-dione], the IC50 with MOLM-13 cells (setting [1]) was 10 to 100 nM; in the test on MOLM-13 cells (setting [3]), below 10 nM; with MV4;11 cells (setting [2]) it was 10 to 100 nM; with MV4;11 cells (setting [4]), below 10 nM.

Consider `Nc1cnc2c(c1)c(C1CC1)nn2[C@H]1C[C@H](CNc2ccc3c(c2)C(=O)N(C2CCC(=O)NC2=O)C3=O)C1` (stereo partly drawn) [GS-756, 5-(((Trans-3-(5-amino-3-cyclopropyl-1H-pyrazolo[3,4-b]pyridin-1-yl)cyclobutyl)methyl)amino)-2-(2,6-dioxopiperidin-3-yl)isoindoline-1,3-dione], for which the IC50 in the test with MOLM-13 cells (setting [1]) and in the test on MV4;11 cells (setting [2]) was above 1000 nM in each case.

For the compound `O=C1CCC(N2C(=O)c3ccc(NC[C@H]4C[C@H](n5nc(C6CC6)c6c(N7CCNCC7)cccc65)C4)cc3C2=O)C(=O)N1` (stereo partly drawn) [GS-757, 5-(((Trans-3-(3-cyclopropyl-4-(piperazin-1-yl)-1H-indazol-1-yl)cyclobutyl)methyl)amino)-2-(2,6-dioxopiperidin-3-yl)isoindoline-1,3-dione], the IC50 with MOLM-13 cells (setting [1]) and with MV4;11 cells (setting [2]) was above 1000 nM in each case.

Take `Cc1nc(-c2cn(C3CC(O)(CNc4ccc5c(c4)C(=O)N(C4CCC(=O)NC4=O)C5=O)C3)nc2C2CC2)ccc1F` (stereo not drawn) [GS-759, 5-(((Cis-3-(3-cyclopropyl-4-(5-fluoro-6-methylpyridin-2-yl)-1H-pyrazol-1-yl)-1-hydroxycyclobutyl)methyl)amino)-2-(2,6-dioxopiperidin-3-yl)isoindoline-1,3-dione]: the IC50 in the test with MOLM-13 cells (setting [1]) is above 1000 nM; in the test on MOLM-13 cells (setting [3]), 10 to 100 nM; in the test on MV4;11 cells (compound alone, 11 IC50) it was 100 to 1000 nM; with MV4;11 cells (setting [4]) it was 10 to 100 nM.

For `Cc1nc(-c2cn(C3CC(O)(CNc4ccc5c(c4)C(=O)N(C4CCC(=O)NC4=O)C5=O)C3)nc2C2CC2)ccc1F` (stereo not drawn) [GS-760, 5-(((trans-3-(3-cyclopropyl-4-(5-fluoro-6-methylpyridin-2-yl)-1H-pyrazol-1-yl)-1-hydroxycyclobutyl)methyl)amino)-2-(2,6-dioxopiperidin-3-yl)isoindoline-1,3-dione], the IC50 in the test with MOLM-13 cells (compound alone, read-out: MOLM-13 IC50) was above 1000 nM; in the test with MV4;11 cells (compound alone, 11 IC50), above 1000 nM.

Turning to `Cn1ncc2cnc(-c3cn([C@H]4C[C@H](COc5ccc6c(c5)C(=O)N(C5CCC(=O)NC5=O)C6=O)C4)nc3C3CC3)cc21` (stereo partly drawn) [GS-761, 5-((Trans-3-(3-cyclopropyl-4-(1-methyl-1H-pyrazolo[4,3-c]pyridin-6-yl)-1H-pyrazol-1-yl)cyclobutyl)methoxy)-2-(2,6-dioxopiperidin-3-yl)isoindoline-1,3-dione], the IC50 in the test with MOLM-13 cells (setting [1]) was above 1000 nM; with MOLM-13 cells (setting [3]) it was 100 to 1000 nM; in the test with MV4;11 cells (setting [2]), above 1000 nM; with MV4;11 cells (setting [4]) it was 100 to 1000 nM.

With `Nc1ccnc2c1c(C1CC1)nn2[C@H]1C[C@H](CNc2ccc3c(c2)C(=O)N(C2CCC(=O)NC2=O)C3=O)C1` (stereo partly drawn) [GS-762, 5-(((Trans-3-(4-amino-3-cyclopropyl-1H-pyrazolo[3,4-b]pyridin-1-yl)cyclobutyl)methyl)amino)-2-(2,6-dioxopiperidin-3-yl)isoindoline-1,3-dione], the IC50 with MOLM-13 cells (setting [1]) and in the test on MV4;11 cells (setting [2]) was above 1000 nM each time.

Regarding `O=C1CCC(N2C(=O)c3ccc(NC[C@H]4C[C@H](n5cc(-c6cc7c(cn6)cnn7C6CC(O)C6)c(C6CC6)n5)C4)cc3C2=O)C(=O)N1` (stereo partly drawn) [GS-763, 5-(((Trans-3-(3-cyclopropyl-4-(1-(3-hydroxycyclobutyl)-1H-pyrazolo[4,3-c]pyridin-6-yl)-1H-pyrazol-1-yl)cyclobutyl)methyl)amino)-2-(2,6-dioxopiperidin-3-yl)isoindoline-1,3-dione], the IC50 was 10 to 100 nM with MOLM-13 cells (setting [1]), below 10 nM in the test on MOLM-13 cells (setting [3]), 10 to 100 nM with MV4;11 cells (setting [2]) and below 10 nM in the test on MV4;11 cells (setting [4]).

`O=C1CCC(N2C(=O)c3ccc(NC[C@H]4C[C@H](n5cc(-c6cnc7ccc(C8CC(O)C8)cc7n6)c(C6CC6)n5)C4)cc3C2=O)C(=O)N1` (stereo partly drawn) [GS-764, 5-(((Trans-3-(3-cyclopropyl-4-(7-(3-hydroxycyclobutyl)quinoxalin-2-yl)-1H-pyrazol-1-yl)cyclobutyl)methyl)amino)-2-(2,6-dioxopiperidin-3-yl)isoindoline-1,3-dione]: the IC50 in the test on MOLM-13 cells (setting [1]), with MOLM-13 cells (setting [3]), with MV4;11 cells (setting [2]) and in the test on MV4;11 cells (setting [4]) was below 10 nM each time.
